Measurements reported in patent US11931366B2, “Compositions and methods of use thereof for treatment of proteinopathies” (priority 2018, dated 2024).
“Also recorded” adds a separate entry of the source. Read-outs that look alike come from different tables or passages of the source.

What was measured:
[1] = system: transgenic C. elegans expressing human mutant alpha-1-antitrypsin gene fused to GFP; experiment: High-throughput phenotypic drug screen and dose response in the C. elegans model of ATD (mutant AT accumulation); format: in vivo; details: for reduction of mutant AT accumulation: 8-point dose response curves, FIG. 4B, 5, 11; for hit in high-throughput screening campaign: C. elegans model of ATD, FIG. 4A
[2] = system: autophagy pathway (LC3, p62); experiment: Autophagy markers (LC3-II/I, p62) following fluphenazine treatment; format: in vivo; details: for autophagic flux: liver
[3] = system: mutant AT protein accumulation in liver; format: in vivo, mouse; details: vs control (CTR)
[4] = following fluphenazine treatment

| Structure (SMILES) | reduction of mutant AT accumulation [1] | hit in high-throughput screening campaign [1] | further results |
| --- | --- | --- | --- |
| CSc1ccc2c(c1)N(CCC1CCCCN1C)c1ccccc1S2 (stereo not drawn) [thioridazine] | reduce mutant AT accumulation in a dose-dependent manner |  |  |
| CCSc1ccc2c(c1)N(CCCN1CCN(C)CC1)c1ccccc1S2 [thiethylperazine] | reduce mutant AT accumulation in a dose-dependent manner |  |  |
| OCCN1CCN(CCCN2c3ccccc3Sc3ccc(Cl)cc32)CC1 [perphenazine] | reduce mutant AT accumulation in a dose-dependent manner | hit compounds |  |
| CN1CCN(CCCN2c3ccccc3Sc3ccc(C(F)(F)F)cc32)CC1 [trifluoperazine] | reduce mutant AT accumulation in a dose-dependent manner | hit compounds |  |
| OC(CNCc1ccc(Cl)cc1)CSc1ccccc1 (stereo not drawn) [RDR 03172] | reduce mutant AT protein accumulation; also recorded: reducing AT accumulations in a dose-dependent manner |  |  |
| CN1CCN(CCCN2c3ccccc3Sc3ccc(Cl)cc32)CC1 [prochlorperazine] | reduce mutant AT accumulation in a dose-dependent manner | hit compounds |  |
| OCCN1CCN(CCCN2c3ccccc3Sc3ccc(C(F)(F)F)cc32)CC1 [fluphenazine] | dose-dependent reduction of mutant AT; also recorded: reduce mutant AT accumulation in a dose-dependent manner | hit compounds | reduction of mutant AT accumulation ([1]; listed as Fluphenazine): reduce misfolded AT protein accumulation in a dose and time-dependent manner; LC3-II/I ratio [2, 4]: increase; p62 [2, 4]: reduction; autophagic flux [2]: enhancing autophagic flux; autophagic flux ([2]; listed as Fluphenazine): enhances autophagic flux; Sirius red staining (collagen deposition, liver fibrosis) ([3]; mouse liver sections): significantly reduced; accumulation of mutant AT protein (purple dots) in liver sections ([3]; transgenic mouse model of ATD): significantly reduced accumulation of mutant AT protein; percent area of purple dots (quantification of AT accumulations) ([3]; transgenic mouse model of ATD): significantly reduced; accumulation of mutant AT protein (purple dots) in liver sections ([3]; transgenic mouse model of ATD, listed as Fluphenazine): reduces mutant AT accumulation |
| FC(F)(F)c1ccc(SCCCN2CCN(c3cccc(Cl)c3)CC2)nc1 [AW00794, Piperazine, 1-(3-chlorophenyl)-4-[3-[[5-(trifluoromethyl)-2-pyridinyl]thio]propyl]-] | reduce mutant AT protein accumulation; also recorded: reduces AT accumulation |  |  |
